In one test the target is COX-1 (Homo sapiens, UniProt P23219). Put plainly: Assay of COX-1 activity from U937 cell microsomes (PGE2). The test is classed as biochemical. Further details: Assay of COX-1 Activity from U937 Cell Microsomes; endogenous in cells; host or cells: U937 cells, 100,000 x g microsomal pellet. Particulars: U-937 cell microsomes, 15 min preincubation; read-out: COX-1 (IC50 mM) U-937. As to the method:
U 937 cells are pelleted by centrifugation at 500×g for 5 min and washed once with phosphate-buffered saline and repelleted. Cells are resuspended in homogenization buffer consisting of 0.1 M Tris-HCl, pH 7.4, 10 mM EDTA, […] leupeptin, 2 μg/ml soybean trypsin inhibitor, 2 μg/ml aprotinin and 1 mM phenyl methyl sulfonyl fluoride. The cell suspension is sonicated 4 times for 10 sec and is centrifuged at 10,000×g for 10 min at 4° C. The supernatant is centrifuged at 100,000×g for 1 hr at 4° C. The 100,000×g microsomal pellet is resuspended in 0.1 M Tris-HCl, pH 7.4, 10 mM EDTA to approximately 7 mg protein/ml and stored at -80° C.
Microsomal preparations are thawed immediately prior to use, subjected to a brief sonication, and then diluted to a protein concentration of 125 μg/ml in 0.1 M Tris-HCl buffer, pH 7.4 containing 10 mM EDTA, 0.5 mM phenol, 1 mM reduced glutathione and 1 μM hematin. Assays are performed in duplicate in a final volume of 250 μl. Initially, 5 μl of DMSO vehicle or drug in DMSO are added to 20 μl of 0.1 M Tris-HCl buffer, pH 7.4 containing 10 mM EDTA in wells of a 96-deepwell polypropylene titre plate. 200 μl of the microsomal preparation are then added and pre-incubated for 15 min at room temperature before addition of 25 μl of […] arachidonic acid in […] Tris-HCl and 10 mM EDTA, pH 7.4. Samples are incubated for 40 min at room temperature and the reaction is stopped by the addition of 25 μl of 1 N HCl. Samples are neutralized with 25 μl of 1 N NaOH prior to quantitation of PGE2 content by radioimmunoassay (Dupont-NEN or Amersham assay kits). Cyclooxygenase activity is defined as the difference between PGE2 levels in samples incubated in the presence of arachidonic acid and ethanol vehicle.
In the assay, inhibition is determined by measuring the amount of prostaglandin E2 (PGE2) synthesized in the presence of arachidonic acid, cyclooxygenase-1 or cyclooxygenase-2 and a putative inhibitor.

Test [1] has as its target T1, COX-2 (Homo sapiens, UniProt P35354).
T1 sequence (P35354 18-604): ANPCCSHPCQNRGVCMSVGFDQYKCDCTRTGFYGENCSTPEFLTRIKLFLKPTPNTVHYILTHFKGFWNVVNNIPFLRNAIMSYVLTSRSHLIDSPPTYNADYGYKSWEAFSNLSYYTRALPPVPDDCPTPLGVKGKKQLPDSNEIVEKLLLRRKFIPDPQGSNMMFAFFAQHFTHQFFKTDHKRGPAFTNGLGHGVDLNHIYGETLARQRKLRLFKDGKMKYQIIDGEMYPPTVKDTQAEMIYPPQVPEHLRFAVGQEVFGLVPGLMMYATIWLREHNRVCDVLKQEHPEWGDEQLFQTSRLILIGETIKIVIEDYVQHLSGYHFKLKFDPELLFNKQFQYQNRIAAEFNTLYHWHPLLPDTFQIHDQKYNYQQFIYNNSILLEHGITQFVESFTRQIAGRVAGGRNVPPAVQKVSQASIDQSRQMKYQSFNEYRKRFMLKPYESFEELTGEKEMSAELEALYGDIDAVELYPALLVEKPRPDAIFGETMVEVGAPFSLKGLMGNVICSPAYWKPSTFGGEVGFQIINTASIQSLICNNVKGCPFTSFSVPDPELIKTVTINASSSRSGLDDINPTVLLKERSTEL
Put plainly: cell-based. The following applies: CHO[hCOX-2] cells, 10 μM AA, 15 min preincubation; read-out: COX-2 (IC50 mM) CHO.

For test [2], the target named is T1, COX-2. Put plainly: cell-based. Particulars: human whole blood, LPS-induced PGE2, 24 h; read-out: COX-2 (IC50 mM) HWB. The source says:
As well, platelets in whole blood contain a large amount of the COX-1 enzyme. Immediately following blood clotting, platelets are activated through a thrombin-mediated mechanism. This reaction results in the production of thromboxane B2 (TxB2) via activation of COX-1. Thus, the effect of test compounds on TxB2 levels following blood clotting can be examined and used as an index for COX-1 activity. Therefore, the degree of selectivity by the test compound can be determined by measuring the levels of PGE2 after LPS induction (COX-2) and TxB2 following blood clotting (COX-1) in the same assay.
Fresh blood is collected in heparinized tubes by venipuncture from both male and female volunteers. The subjects have no apparent inflammatory conditions and have not taken any NSAIDs for at least 7 days prior to blood collection. Plasma is immediately obtained from a 2mL blood aliquot to use as blank (basal levels of PGE2). The remaining blood is incubated with LPS (100 μg/ml final concentration, Sigma Chem, #L-2630 from E. coli; diluted in 0.1% BSA (Phosphate buffered saline) for 5 minutes at room temperature. Five hundred […] aliquots of blood are incubated with either 2 μL of vehicle (DMSO) or 2 μL of a test compound at final concentrations varying from 10 nM to 30 μM for 24 hours at 37° C. At the end of the incubation, the blood is centrifuged at 12,000×g for 5 minutes to obtain plasma. A 100 μL aliquot of plasma is mixed with 400 μL of methanol for protein precipitation. The supernatant is obtained and is assayed for PGE2 using a radioimmunoassay kit (Amersham, RPA#530) after conversion of PGE2 to its methyl oximate derivative according to the manufacturer's procedure. […]

SMILES strings stand for the structures. Like-named read-outs stand apart in the source and are kept apart here.

Chain of COX-1 (P23219 24-599): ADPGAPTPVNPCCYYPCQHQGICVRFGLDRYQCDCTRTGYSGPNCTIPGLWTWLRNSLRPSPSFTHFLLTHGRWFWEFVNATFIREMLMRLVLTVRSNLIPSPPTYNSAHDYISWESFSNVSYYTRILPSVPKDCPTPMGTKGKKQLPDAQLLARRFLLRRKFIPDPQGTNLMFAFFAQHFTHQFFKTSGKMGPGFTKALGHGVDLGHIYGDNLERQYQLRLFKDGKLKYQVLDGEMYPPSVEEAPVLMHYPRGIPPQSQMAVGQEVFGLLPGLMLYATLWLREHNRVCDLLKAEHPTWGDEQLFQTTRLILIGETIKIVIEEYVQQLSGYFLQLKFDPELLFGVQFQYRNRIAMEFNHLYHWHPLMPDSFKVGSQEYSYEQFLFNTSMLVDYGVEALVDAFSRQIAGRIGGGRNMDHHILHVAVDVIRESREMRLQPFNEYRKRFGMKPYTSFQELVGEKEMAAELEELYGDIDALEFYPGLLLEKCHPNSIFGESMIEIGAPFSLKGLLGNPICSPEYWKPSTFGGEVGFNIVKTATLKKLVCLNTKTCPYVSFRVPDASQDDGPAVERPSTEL

In general, IC50 refers to the concentration at which inhibition is half-maximal. As to `CS(=O)(=O)c1ccc(-c2cc(C(F)(F)F)cnc2O[C@@H]2CCC[C@@H]2O)cc1` (relative stereo) [Example 29, 2-(cis-2-Hydroxycyclopentyloxy)-3-(4-methylsulfonyl)phenyl-5-trifluoromethylpyridine], the IC50 at COX-1 is above 0.01 mM.
The same measure, in the same setting: to `CS(=O)(=O)c1ccc(-c2cc(C(F)(F)F)cnc2O[C@H]2CCC[C@@H]2O)cc1` (relative stereo) [Example 30, 2-(trans-2-Hydroxycyclopentyloxy)-3-(4-methylsulfonyl)phenyl-5-trifluoromethylpyridine] belongs 0.003 to 0.01 mM.
As to `C[C@]1(O)CCC[C@H]1Oc1ncc(C(F)(F)F)cc1-c1ccc(S(N)(=O)=O)cc1` (relative stereo) [Example 33, 3-(4-aminosulfonyl)phenyl-2-(cis-2-hydroxy-2-methylcyclopentyloxy)-5-trifluoromethylpyridine], the IC50 on COX-2 [1] turned out to be 0.04 µM; on COX-1, 0.01 mM; at COX-2 [2] it was 0.0037 mM.
For `C[C@]1(O)CCC[C@H]1Oc1ncc(Cl)cc1-c1ccc(S(C)(=O)=O)cc1` (relative stereo) [Example 34, 5-Chloro-2-(cis-2-hydroxy-2-methylcyclopentyloxy)-3-(4-methylsulfonyl)phenylpyridine] the same measures were 0.1 µM, above 0.01 mM and 0.0017 mM.
On to `C[C@@]1(O)CCC[C@H]1Oc1ncc(C(F)(F)F)cc1-c1ccc(S(C)(=O)=O)cc1` (relative stereo) [Example 35, 2-(trans-2-Hydroxy-2-methylcyclopentyloxy)-3-(4-methylsulfonyl)phenyl-5-trifluoromethylpyridine], for which the IC50 at COX-1 lay in the range of 0.001 to 0.003 mM.
As to `CC[C@]1(O)CCC[C@H]1Oc1ncc(C(F)(F)F)cc1-c1ccc(S(C)(=O)=O)cc1` (relative stereo) [Example 36, 2-(cis-2-Hydroxy-2-ethylcyclopentyloxy)-3-(4-methylsulfonyl)phenyl-5-trifluoromethylpyridine], the IC50 is 0.17 µM at COX-2 [1], above 0.01 mM at COX-1 and 0.0031 mM on COX-2 [2].
In the case of `C[C@@]1(O)CCCC[C@@H]1Oc1ncc(C(F)(F)F)cc1-c1ccc(S(C)(=O)=O)cc1` (relative stereo) [Example 37, 2-(cis-2-Hydroxy-2-methylcyclohexyloxy)-3-(4-methylsulfonyl)phenyl-5-trifluoromethylpyridine], the IC50 is 0.57 µM on COX-2 [1], above 0.01 mM on COX-1 and 0.0065 mM on COX-2 [2].
Regarding `CCC(C)(O)CSc1ncc(C(F)(F)F)cc1-c1ccc(S(C)(=O)=O)cc1` (single isomer, unassigned; (+)) [Example 45, (+)-2-(2-Hydroxy-2-methyl-1-thiobutyloxy)-3-(4-methylsulfonyl)phenyl-5-trifluoromethylpyridine], the IC50 at COX-1 is 0.003 to 0.01 mM.
Still for that read-out and setting: the same measure for `CCC(C)(O)CSc1ncc(C(F)(F)F)cc1-c1ccc(S(C)(=O)=O)cc1` (single isomer, unassigned; (-)) [Example 46, (-)-2-(2-Hydroxy-2-methyl-1-thiobutyloxy)-3-(4-methylsulfonyl)phenyl-5-trifluoromethylpyridine]: 0.001 to 0.003 mM.
As for `COCCOc1ncc(C(F)(F)F)cc1-c1ccc(S(C)(=O)=O)cc1` [Example 2, 2-(2-Methoxy)ethoxy-3-(4-methylsulfonyl)phenyl-5-trifluoromethylpyridine], the IC50 on COX-2 [1] was 0.02 µM; at COX-1, 0.001 to 0.003 mM; at COX-2 [2], 0.0013 mM.
As for `CC(C)(O)COc1ncc(C(F)(F)F)cc1-c1ccc(S(C)(=O)=O)cc1` [Example 4, 2-(2-Hydroxy-2-methyl-1-propyloxy)-3-(4-methylsulfonyl)phenyl-5-trifluoromethylpyridine], the IC50 on COX-2 [1] is 0.15 µM; on COX-1 it was above 0.1 mM; at COX-2 [2], 0.0008 mM.
Regarding `CC(C)(O)COc1ncc(Cl)cc1-c1ccc(S(C)(=O)=O)cc1` [Example 5, 5-Chloro-2-(2-hydroxy-2-methyl-1-propyloxy)-3-(4-methylsulfonyl)phenylpyridine], the IC50 at COX-2 [1] is 0.11 µM; at COX-1 it was above 0.1 mM; on COX-2 [2] it was 0.0036 mM.
For `COC(C)(C)COc1ncc(C(F)(F)F)cc1-c1ccc(S(C)(=O)=O)cc1` [Example 6, 2-(2-Methoxy-2-methyl-1-propyloxy)-3-(4-methylsulfonyl)phenyl-5-trifluoromethylpyridine] the same measures were 0.03 µM, 0.003 to 0.01 mM and below 0.0004 mM.
For `CCC(C)(O)COc1ncc(C(F)(F)F)cc1-c1ccc(S(C)(=O)=O)cc1` (centres unmarked) [Example 7, 2-(2-Hydroxy-2-methyl-1-butyloxy)-3-(4-methylsulfonyl)phenyl-5-trifluoromethylpyridine], the figures for the IC50 at COX-2 [1], at COX-1 and at COX-2 [2] were 0.13 µM, above 0.01 mM and 0.001 mM, respectively.
For `CCC(O)(CC)COc1ncc(C(F)(F)F)cc1-c1ccc(S(C)(=O)=O)cc1` [Example 8, 2-(2-Hydroxy-2-ethyl-1-butyloxy)-3-(4-methylsulfonyl)phenyl-5-trifluoromethylpyridine] the same measures were 0.19 µM, above 0.01 mM and 0.0011 mM.
For `CCC(O)(CC)COc1ncc(Cl)cc1-c1ccc(S(C)(=O)=O)cc1` [Example 9, 5-Chloro-2-(2-hydroxy-2-ethyl-1-butyloxy)-3-(4-methylsulfonyl)phenylpyridine] the same measures were 0.07 µM, above 0.01 mM and 0.0016 mM.
For `CS(=O)(=O)c1ccc(-c2cc(C(F)(F)F)cnc2OCC2(O)CC2)cc1` [Example 11, 2-(1-Hydroxycyclopropyl)methoxy-3-(4-methylsulfonyl)phenyl-5-trifluoromethylpyridine] the same measures were 0.09 µM, 0.01 mM and 0.0016 mM.
Turning to `CS(=O)(=O)c1ccc(-c2cc(C(F)(F)F)cnc2OCC2(O)CCC2)cc1` [Example 12, 2-(1-Hydroxycyclobutyl)methoxy-3-(4-methylsulfonyl)phenyl-5-trifluoromethylpyridine], the IC50 at COX-2 [1] was 0.05 µM; at COX-1 it was above 0.01 mM; at COX-2 [2] it was 0.0013 mM.

The values are drawn from patent US6046217A, “2,3,5-trisubstituted pyridines as inhibitors of cyclooxygenase-2” (Merck Frosst Canada & Co., priority 1998, dated 2000).
